Experimental data taken from US4668680A, “5-amino-6,8-difluoroquinolones as antibacterial agents” (Warner-Lambert Company, priority 1985, dated 1987).
Converted amounts (≈) assume the structure as drawn. Read-outs that look alike come from different tables or passages of the source.

Assays:
Experiment in all cases: in vitro antibacterial activity, microtitration dilution method
Type in all cases: cell-based
[1] = tested on: Enterobacter cloacae MA 2646; conditions: MA2646, read-out: Minimal Inhibitory Concentration MIC
[2] = tested on: Streptococcus pyogenes C-203
Excerpt: (§1) The compounds of the invention display antibacterial activity as shown in the following table when tested by the microtitration dilution method as described in Heifetz, et al, Antimicr. Agents & Chemoth., 6, 124 (1974), which is incorporated herein by reference. […]

Escherichia coli Vogel = conditions: read-out: Minimal Inhibitory Concentration MIC
Excerpt: as §1

[3] = tested on: Streptococcus faecalis MGH-2; conditions: Enterococcus faecalis
Excerpt: as §1

[4] = tested on: Streptococcus pneumonia SV-1; conditions: Streptococcus pneumoniae
Excerpt: as §1

[5] = tested on: Pseudomonas aeruginosa UI-18
Excerpt: as §1

[6] = tested on: Staphylococcus aureus UC-76
Excerpt: as §1

Proteus rettgeri M 1771 = conditions: Providencia rettgeri
Excerpt: as §1

[7] = tested on: Klebsiella pneumoniae MGH-2
Excerpt: as §1

[8] = tested on: Staphylococcus aureus H 228
Excerpt: as §1

[9] = C203, Streptococcus pyogenes C-203, read-out: Minimal Inhibitory Concentration MIC
[10] = MGH2, Streptococcus faecalis MGH-2, read-out: Minimal Inhibitory Concentration MIC
[11] = SV1, Streptococcus pneumonia SV-1, read-out: Minimal Inhibitory Concentration MIC
[12] = UI18, Pseudomonas aeruginosa UI-18, read-out: Minimal Inhibitory Concentration MIC
[13] = UC76, Staphylococcus aureus UC-76, read-out: Minimal Inhibitory Concentration MIC
[14] = M1771, Proteus rettgeri M 1771, read-out: Minimal Inhibitory Concentration MIC
[15] = MGH2, Klebsiella pneumoniae MGH-2, read-out: Minimal Inhibitory Concentration MIC
[16] = H228, Staphylococcus aureus H 228, read-out: Minimal Inhibitory Concentration MIC

Structure (SMILES)	MIC [1] [µg/mL]	MIC [2, 9] [µg/mL]	MIC (Escherichia coli Vogel) [µg/mL]	MIC [3, 10] [µg/mL]	MIC [4, 11] [µg/mL]	MIC [5, 12] [µg/mL]	MIC [6, 13] [µg/mL]	MIC (Proteus rettgeri M 1771; [14]) [µg/mL]	MIC [7, 15] [µg/mL]	MIC [8, 16] [µg/mL]	MIC ([2]; Streptococcus pyogenes, C203, read-out: Minimal Inhibitory Concentration MIC) [µg/mL]	MIC ([3]; MGH2, read-out: Minimal Inhibitory Concentration MIC) [µg/mL]	MIC ([4]; SV1, read-out: Minimal Inhibitory Concentration MIC) [µg/mL]	MIC ([5]; Pseudomonas aeruginosa, UI18, read-out: Minimal Inhibitory Concentration MIC) [µg/mL]	MIC ([6]; Staphylococcus aureus, UC76, read-out: Minimal Inhibitory Concentration MIC) [µg/mL]	MIC (Proteus rettgeri M 1771; M1771, read-out: Minimal Inhibitory Concentration MIC) [µg/mL]	MIC ([7]; Klebsiella pneumoniae, MGH2, read-out: Minimal Inhibitory Concentration MIC) [µg/mL]	MIC ([8]; Staphylococcus aureus, H228, read-out: Minimal Inhibitory Concentration MIC) [µg/mL]
CN1CCN(c2c(F)c(N)c3c(=O)c(C(=O)O)cn(C4CC4)c3c2F)CC1 [Ex. 2, 5-Amino-1-cyclopropyl-6,8-difluoro-1,4-dihydro-7-(4-methyl-1-piperazinyl)-4-oxo-3-quinolinecarboxylic acid]	0.013 (≈ 0.0344 µM)	0.4 (≈ 1.06 µM)	0.013 (≈ 0.0344 µM)	0.1 (≈ 0.264 µM)	0.2 (≈ 0.529 µM)	0.1 (≈ 0.264 µM)	0.025 (≈ 0.0661 µM)	0.05 (≈ 0.132 µM)	0.013 (≈ 0.0344 µM)	0.05 (≈ 0.132 µM)								
O=C(O)c1cn(C2CC2)c2cc(N3CCNCC3)c(F)cc2c1=O [Ciprofloxacin, 1-cyclopropyl-6-fluoro-1,4-dihydro-4-oxo-7-piperazinyl-3-quinoline-carboxylic acid, reference compound]			0.05 (≈ 0.151 µM)								0.8 (≈ 2.41 µM)	0.8 (≈ 2.41 µM)	1.6 (≈ 4.83 µM)	0.4 (≈ 1.21 µM)	0.2 (≈ 0.604 µM)	0.1 (≈ 0.302 µM)	0.1 (≈ 0.302 µM)	3.1 (≈ 9.36 µM)
Nc1c(F)c(N2CCNCC2)c(F)c2c1c(=O)c(C(=O)O)cn2C1CC1 [Ex. 1, 5-amino-1-cyclopropyl-6,8-difluoro-1,4-dihydro-4-oxo-7-(1-piperazinyl)-3-quinolinecarboxylic acid]	0.013 (≈ 0.0357 µM)	0.2 (≈ 0.549 µM)	0.013 (≈ 0.0357 µM)	0.05 (≈ 0.137 µM)	0.05 (≈ 0.137 µM)	0.025 (≈ 0.0686 µM)	0.013 (≈ 0.0357 µM)	0.05 (≈ 0.137 µM)	0.025 (≈ 0.0686 µM)	0.05 (≈ 0.137 µM)								
